Measured values reported in US20240116985A1, “STAPLED PEPTIDES AND METHODS THEREOF” (priority 2020, published 2024).
≈ marks a conversion by molar mass, not a printed value. Like-named read-outs stand apart in the source and are kept apart here.

Tests used:
[1] = CHI Log D procedure; type: physicochemical; conditions: for chromatographic logD: pH 7.4, CHI Log D
[2] = Solubility in PBS; type: physicochemical
Summary of the method: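 Steps: ultracentrifuge the peptide PBS solution, inject the supernatant on HPLC, inject a 50 μM peptide DMSO solution as reference, then calculate solubility as area ratio (PBS/DMSO) × 50 uM.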

[3] = molecular target: T1, full-length beta-Catenin (Uniprot ID P35222) (Homo sapiens, UniProt P35222); test: Fluorescence polarization IC50 (beta-catenin / 5FAM-TCF4 10-53 competition); type: binding
T1 construct: 10 nM full-length beta-Catenin (Uniprot ID P35222)
T1 sequence (P35222 1-781): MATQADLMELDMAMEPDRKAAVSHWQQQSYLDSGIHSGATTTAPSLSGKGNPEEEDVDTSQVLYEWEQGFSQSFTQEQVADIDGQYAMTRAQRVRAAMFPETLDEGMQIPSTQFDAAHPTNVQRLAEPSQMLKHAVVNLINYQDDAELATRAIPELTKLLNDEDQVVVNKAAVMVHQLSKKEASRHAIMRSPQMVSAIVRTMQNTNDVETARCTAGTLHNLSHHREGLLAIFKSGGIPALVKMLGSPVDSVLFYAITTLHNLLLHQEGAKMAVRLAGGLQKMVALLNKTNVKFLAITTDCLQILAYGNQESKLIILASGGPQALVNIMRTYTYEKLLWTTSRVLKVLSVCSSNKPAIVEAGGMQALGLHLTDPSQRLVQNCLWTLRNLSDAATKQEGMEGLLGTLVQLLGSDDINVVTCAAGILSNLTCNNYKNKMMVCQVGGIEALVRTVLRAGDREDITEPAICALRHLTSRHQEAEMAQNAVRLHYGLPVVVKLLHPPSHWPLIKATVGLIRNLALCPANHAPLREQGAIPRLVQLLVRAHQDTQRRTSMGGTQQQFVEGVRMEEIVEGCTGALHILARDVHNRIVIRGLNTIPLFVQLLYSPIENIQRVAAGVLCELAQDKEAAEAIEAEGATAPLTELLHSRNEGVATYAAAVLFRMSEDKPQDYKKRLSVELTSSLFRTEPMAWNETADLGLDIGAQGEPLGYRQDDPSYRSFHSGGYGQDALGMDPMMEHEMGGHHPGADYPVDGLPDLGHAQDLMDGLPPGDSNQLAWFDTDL

[4] = molecular target: T2, beta-catenin/TCF4 engagement (Homo sapiens, UniProt P35222); test: Nano-BRET target engagement assay (B-cat-Halo & TCF4-Luc in HEK293 cells); type: cell-based
T2 construct: expressed in transfected cells; host or cells: HEK293
T2 sequence (P35222 1-781): T1 sequence (P35222 1-781)

[5] = absolute IC50; read-out: NanoBRET Abs IC50

chromatographic logD [1]	Solubility [2]	IC50 ([3]; read-out: beta-Catenin FP IC50)	IC50 [4, 5]	Solubility ([2]; Solubility (uM))	IC50 ([4]; read-out: NanoBRET Abs IC50)	IC50 ([3]; fluorescence polarization, beta-catenin, read-out: FP EC50)	Compound	CHI Log D ([1]; pH 7.4)	IC50 ([3]; read-out: FP EC50, fluorescence polarization, beta-catenin)	IC50 ([4]; read-out: NanoBRET Abs IC50; absolute IC50)
2.27	50 µM (≈ 98.6 µg/mL)	0.008 µM	9.3 µM	–	–	–	CC(=O)N1CCC[C@]12CC=CCCCC1(CCCC=CCCCOC(=O)N3CC[C@@](C(=O)N[C@@H](Cc4ccccc4Cl)C(=O)N[C@@H](Cc4csc5ccccc45)C(=O)N[C@@H](CCC(N)=O)C(N)=O)(C3)NC(=O)[C@H](CC(N)=O)NC(=O)[C@H](Cc3ccccc3)NC(=O)[C@H](C)NC(=O)[C@H](C)NC(=O)[C@H](CC(=O)O)NC(=O)[C@H](CC(=O)O)NC1=O)NC(=O)[C@H](CC1CCCCC1)NC(=O)[C@H](CC(=O)O)NC2=O (stereo partly drawn) [I-1040, Ac-PL3-Asp-Cha-B5-Asp-Asp-Ala-Ala-Phe-Asn-PyrS2-2C1F-BztA-Gln-NH2]	–	–	–
2.08	50 µM (≈ 98.3 µg/mL)	0.008 µM	> 20 µM	–	–	–	CC(=O)N1CCC[C@]12CC=CCCCC1(CCCC=CCCCOC(=O)N3CC[C@@](C(=O)N[C@@H](Cc4ccccc4Cl)C(=O)N[C@@H](Cc4csc5ccccc45)C(=O)N[C@@H](CCC(N)=O)C(N)=O)(C3)NC(=O)[C@H](CC(N)=O)NC(=O)[C@H](Cc3ccccc3)NC(=O)[C@H](C)NC(=O)[C@H](C)NC(=O)[C@H](CC(=O)O)NC(=O)[C@H](CC(=O)O)NC1=O)NC(=O)[C@H](Cc1ccccc1)NC(=O)[C@H](CC(=O)O)NC2=O (stereo partly drawn) [I-1041, Ac-PL3-Asp-Phe-B5-Asp-Asp-Ala-Ala-Phe-Asn-PyrS2-2C1F-BztA-Gln-NH2]	–	–	–
2.35	–	0.005 µM	–	46 µM (≈ 90.1 µg/mL)	11.4 µM	–	CC(=O)N1CCC[C@]12CC=CCCCC1(CCCC=CCCCOC(=O)N3CC[C@@](C(=O)N[C@@H](Cc4ccccc4Cl)C(=O)N[C@@H](Cc4csc5ccccc45)C(=O)N[C@@H](CCC(N)=O)C(N)=O)(C3)NC(=O)[C@H]([C@@H](C)O)NC(=O)[C@H](Cc3ccccc3)NC(=O)[C@H](C)NC(=O)[C@H](C)NC(=O)[C@H](CC(=O)O)NC(=O)[C@H](CC(=O)O)NC1=O)NC(=O)[C@H](CC1CCCCC1)NC(=O)[C@H](CC(=O)O)NC2=O (stereo partly drawn) [I-1042, Ac-PL3-Asp-Cha-B5-Asp-Asp-Ala-Ala-Phe-Thr-PyrS2-2C1F-BztA-Gln-NH2]	–	–	–
2.15	–	0.012 µM	–	43 µM (≈ 84 µg/mL)	> 20 µM	–	CC(=O)N1CCC[C@]12CC=CCCCC1(CCCC=CCCCOC(=O)N3CC[C@@](C(=O)N[C@@H](Cc4ccccc4Cl)C(=O)N[C@@H](Cc4csc5ccccc45)C(=O)N[C@@H](CCC(N)=O)C(N)=O)(C3)NC(=O)[C@H]([C@@H](C)O)NC(=O)[C@H](Cc3ccccc3)NC(=O)[C@H](C)NC(=O)[C@H](C)NC(=O)[C@H](CC(=O)O)NC(=O)[C@H](CC(=O)O)NC1=O)NC(=O)[C@H](Cc1ccccc1)NC(=O)[C@H](CC(=O)O)NC2=O (stereo partly drawn) [I-1043, Ac-PL3-Asp-Phe-B5-Asp-Asp-Ala-Ala-Phe-Thr-PyrS2-2C1F-BztA-Gln-NH2]	–	–	–
2.12	–	0.005 µM	23.9 µM	49 µM (≈ 95 µg/mL)	–	–	CC(=O)N1CCC[C@]12CC=CCCCC1(CCCC=CCCCOC(=O)N3CC[C@@](C(=O)N[C@@H](Cc4ccccc4Cl)C(=O)N[C@@H](Cc4csc5ccccc45)C(=O)N[C@@H](CCC(N)=O)C(N)=O)(C3)NC(=O)[C@H](CO)NC(=O)[C@H](Cc3ccccc3)NC(=O)[C@H](C)NC(=O)[C@H](C)NC(=O)[C@H](CC(=O)O)NC(=O)[C@H](CC(=O)O)NC1=O)NC(=O)[C@H](Cc1ccccc1)NC(=O)[C@H](CC(=O)O)NC2=O (stereo partly drawn) [I-1045, Ac-PL3-Asp-Phe-B5-Asp-Asp-Ala-Ala-Phe-Ser-PyrS2-2C1F-BztA-Gln-NH2]	–	–	–
2.4	–	0.005 µM	20.5 µM	37 µM (≈ 71.5 µg/mL)	–	–	CC(=O)N1CCC[C@]12CC=CCCCC1(CCCC=CCCCOC(=O)N3CC[C@@](C(=O)N[C@@H](Cc4ccccc4Cl)C(=O)N[C@@H](Cc4csc5ccccc45)C(=O)N[C@@H](CO)C(N)=O)(C3)NC(=O)[C@H](CC(N)=O)NC(=O)[C@H](Cc3ccccc3)NC(=O)[C@H](C)NC(=O)[C@H](C)NC(=O)[C@H](CC(=O)O)NC(=O)[C@H](CC(=O)O)NC1=O)NC(=O)[C@H](CC1CCCCC1)NC(=O)[C@H](CC(=O)O)NC2=O (stereo partly drawn) [I-1046, Ac-PL3-Asp-Cha-B5-Asp-Asp-Ala-Ala-Phe-Asn-PyrS2-2C1F-BztA-Ser-NH2]	–	–	–
2.19	10 µM (≈ 19.3 µg/mL)	0.005 µM	28.4 µM	–	–	–	CC(=O)N1CCC[C@]12CC=CCCCC1(CCCC=CCCCOC(=O)N3CC[C@@](C(=O)N[C@@H](Cc4ccccc4Cl)C(=O)N[C@@H](Cc4csc5ccccc45)C(=O)N[C@@H](CO)C(N)=O)(C3)NC(=O)[C@H](CC(N)=O)NC(=O)[C@H](Cc3ccccc3)NC(=O)[C@H](C)NC(=O)[C@H](C)NC(=O)[C@H](CC(=O)O)NC(=O)[C@H](CC(=O)O)NC1=O)NC(=O)[C@H](Cc1ccccc1)NC(=O)[C@H](CC(=O)O)NC2=O (stereo partly drawn) [I-1047, Ac-PL3-Asp-Phe-B5-Asp-Asp-Ala-Ala-Phe-Asn-PyrS2-2C1F-BztA-Ser-NH2]	–	–	–
2.56	10 µM (≈ 21.4 µg/mL)	0.006 µM	10.3 µM	–	–	–	CC(=O)N1CCC[C@]12CC=CCCCC1(CCCC=CCCCOC(=O)N3CC[C@@](C(=O)N[C@@H](Cc4ccccc4Cl)C(=O)N[C@@H](Cc4csc5ccccc45)C(=O)N[C@@H](CCC(N)=O)C(=O)NCCCCCCN)(C3)NC(=O)[C@H]([C@@H](C)O)NC(=O)[C@H](Cc3ccccc3)NC(=O)[C@H](C)NC(=O)[C@H](C)NC(=O)[C@H](CN(CC(=O)O)CC(F)(F)F)NC(=O)[C@H](CC(=O)O)NC1=O)NC(=O)[C@H](CC(C)(C)C)NC(=O)[C@H](CC(=O)O)NC2=O (stereo partly drawn) [I-1061, Ac-PL3-Asp-Npg-B5-Asp-TfeGA-Ala-Ala-Phe-Thr-PyrS2-2C1F-BztA-Gln-6AmHex]	–	–	–
1.39	–	0.01 µM	–	35 µM (≈ 66.9 µg/mL)	10.5 µM	0.723 µM	CC(=O)N1CCC[C@]12CC=CCCCC1(CCCC=CCCCOC(=O)N3CC[C@@](C(=O)N[C@@H](Cc4ccccc4)C(=O)N[C@@H](Cc4csc5ccccc45)C(=O)N[C@@H](CCC(N)=O)C(N)=O)(C3)NC(=O)[C@H](CC(C)C)NC(=O)[C@H](Cc3ccccc3)NC(=O)[C@H](C)NC(=O)[C@H](C)NC(=O)[C@H](CC(=O)O)NC(=O)[C@H](CC(=O)O)NC1=O)NC(=O)[C@H](CC(C)(C)C)NC(=O)[C@H](CC(=O)O)NC2=O (stereo partly drawn) [I-1072, Ac-PL3-Asp-Npg-B5-Asp-Asp-Ala-Ala-Phe-Leu-PyrS2-Phe-BztA-Gln-NH2]	–	–	–

Compound	chromatographic logD [1]	Solubility [2]	IC50 ([3]; read-out: beta-Catenin FP IC50)	IC50 [4, 5]	Solubility ([2]; Solubility (uM))	IC50 ([4]; read-out: NanoBRET Abs IC50)	IC50 ([3]; fluorescence polarization, beta-catenin, read-out: FP EC50)	CHI Log D ([1]; pH 7.4)	IC50 ([3]; read-out: FP EC50, fluorescence polarization, beta-catenin)	IC50 ([4]; read-out: NanoBRET Abs IC50; absolute IC50)
C[C@@H]1NC(=O)[C@H](C)NC(=O)[C@H](CC(=O)O)NC(=O)[C@H](CC(=O)O)NC(=O)C2(CCCC=CCCCCCC[C@@](C)(C(=O)N[C@@H](Cc3ccsc3)C(=O)N[C@@H](Cc3csc4ccccc34)C(=O)N[C@@H](CCC(N)=O)C(N)=O)NC(=O)[C@H](CC(N)=O)NC(=O)[C@H](Cc3ccccc3)NC1=O)CCCC=CC[C@]1(CCCN1C(=O)CN=[N+]=[N-])C(=O)N[C@@H](CC(=O)O)C(=O)N[C@@H](CC(C)(C)C)C(=O)N2 (stereo partly drawn) [I-1053, AzAc-PL3-Asp-Npg-B5-Asp-Asp-Ala-Ala-Phe-Asn-S8-3Thi-BztA-Gln-NH2]	–	48 µM (≈ 92 µg/mL)	–	–	–	–	–	2.381	0.011 µM	> 20 µM
